Biological target: T1, Recombinant human TLR7 (Homo sapiens, UniProt Q9NYK1)
T1 construct: expressed in transfected cells; host or cells: HEK293 cell line stably expressing the pNiFty2-SEAP reporter plasmid; TLR7 in vector pUNO, blasticidin selection
T1 sequence (Q9NYK1 27-1049): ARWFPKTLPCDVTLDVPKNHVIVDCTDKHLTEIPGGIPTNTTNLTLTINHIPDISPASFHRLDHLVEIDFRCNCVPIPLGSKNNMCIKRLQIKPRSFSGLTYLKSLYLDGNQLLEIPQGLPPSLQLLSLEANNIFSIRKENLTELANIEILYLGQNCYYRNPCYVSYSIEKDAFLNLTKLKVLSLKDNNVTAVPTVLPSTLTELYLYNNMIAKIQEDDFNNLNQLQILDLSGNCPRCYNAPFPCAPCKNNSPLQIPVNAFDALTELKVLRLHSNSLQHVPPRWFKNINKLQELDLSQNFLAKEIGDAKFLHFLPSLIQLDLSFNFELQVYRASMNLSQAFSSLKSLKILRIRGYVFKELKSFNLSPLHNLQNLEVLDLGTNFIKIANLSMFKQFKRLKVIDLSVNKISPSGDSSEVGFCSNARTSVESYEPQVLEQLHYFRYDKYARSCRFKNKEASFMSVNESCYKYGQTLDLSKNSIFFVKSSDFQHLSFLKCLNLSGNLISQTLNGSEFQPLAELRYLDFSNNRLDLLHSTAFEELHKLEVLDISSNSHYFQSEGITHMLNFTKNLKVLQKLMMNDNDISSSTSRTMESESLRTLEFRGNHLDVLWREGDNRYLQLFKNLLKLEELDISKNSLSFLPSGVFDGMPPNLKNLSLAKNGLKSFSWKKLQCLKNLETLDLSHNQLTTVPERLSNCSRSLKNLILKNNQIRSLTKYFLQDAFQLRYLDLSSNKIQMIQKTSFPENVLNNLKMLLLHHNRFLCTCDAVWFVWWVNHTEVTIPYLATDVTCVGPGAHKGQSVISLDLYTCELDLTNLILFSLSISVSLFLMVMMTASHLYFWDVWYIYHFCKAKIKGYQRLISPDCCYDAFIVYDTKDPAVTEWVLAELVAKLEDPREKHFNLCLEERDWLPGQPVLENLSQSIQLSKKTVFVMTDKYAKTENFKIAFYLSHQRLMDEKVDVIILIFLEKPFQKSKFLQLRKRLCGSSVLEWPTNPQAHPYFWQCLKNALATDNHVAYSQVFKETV
Test: Human TLR7 Assay (SEAP reporter);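 further: SEAP driven by an NFkB-responsive composite promoter, pEC50 read at half of each compound's own maximal SEAP induction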
Assay type: cell-based
Settings: HEK293 cell line stably expressing human TLR7 and pNiFty2-SEAP reporter; SEAP induction after overnight incubation at 37° C., 0.1% (v/v) DMSO
Source text: Recombinant human TLR7 was stably expressed in a HEK293 cell line already stably expressing the pNiFty2-SEAP reporter plasmid; integration of the reporter gene was maintained by selection with the antibiotic zeocin. The most common variant sequence of human TLR7 (represented by the EMBL sequence AF240467) was cloned into the mammalian cell expression vector pUNO and transfected into this reporter cell-line. Transfectants with stable expression were selected using the antibiotic blasticidin. In this reporter cell-line, expression of secreted alkaline phosphatase (SEAP) is controlled by an NFkB/ELAM-1 composite promoter comprising five NFkB sites combined with the proximal ELAM-1 promoter. TLR signaling leads to the translocation of NFkB and activation of the promoter results in expression of the SEAP gene. TLR7-specific activation was assessed by determining the level of SEAP produced following overnight incubation of the cells at 37° C. with the standard compound in the presence of 0.1% (v/v) dimethylsulfoxide (DMSO). Concentration dependent induction of SEAP production by compounds was expressed as the concentration of compound which produced half of the maximal level of SEAP induction for that compound (pEC50).

EC50	SMILES
631 nM	CCCCCNc1nc(N)nc(C)c1Cc1ccc(CC(=O)OC)cc1F [Example 22, Methyl 2-(4-((2-amino-4-methyl-6-(pentylamino)pyrimidin-5-yl)methyl)-3-fluorophenyl)acetate]
31.6 nM	CCC[C@@H](CO)Nc1nc(N)nc(C)c1Cc1ccc(CC(=O)OC)cc1OC [Example 30, (S)-Methyl 2-(4-((2-amino-4-(1-hydroxypentan-2-ylamino)-6-methylpyrimidin-5-yl)methyl)-3-methoxyphenyl)acetate]
6.31 nM	CCCC[C@@H](CCO)Nc1nc(N)nc(C)c1Cc1ccc(CC(=O)OC)cc1OC [Example 31, (S)-Methyl 2-(4-((2-amino-4-(1-hydroxyheptan-3-ylamino)-6-methylpyrimidin-5-yl)methyl)-3-methoxyphenyl)acetate]
50.1 nM	CCCC[C@@H](CO)Nc1nc(N)nc(C)c1Cc1ccc(CC(=O)OC)cc1OC [Example 32, (S)-Methyl 2-(4-((2-amino-4-(1-hydroxyhexan-2-ylamino)-6-methylpyrimidin-5-yl)methyl)-3-methoxyphenyl)acetate]
50.1 nM	CCCC[C@@H](CCO)Nc1nc(N)nc(C)c1Cc1ccc(CC(=O)OC)cc1F [Example 33, (S)-Methyl 2-(4-((2-amino-4-(1-hydroxyheptan-3-ylamino)-6-methylpyrimidin-5-yl)methyl)-3-fluorophenyl)acetate]
631 nM	CCC[C@@H](CCO)Nc1nc(N)nc(C)c1Cc1cc(CC(=O)OC)ccc1F [Example 42, (S)-Methyl 2-(3-((2-amino-4-(1-hydroxyhexan-3-ylamino)-6-methylpyrimidin-5-yl)methyl)-4-fluorophenyl)acetate]
794 nM	CCC[C@@H](CO)Nc1nc(N)nc(C)c1Cc1ccc(CC(=O)OC)cc1 [Example 43, (S)-Methyl 2-(4-((2-amino-4-(1-hydroxypentan-2-ylamino)-6-methylpyrimidin-5-yl)methyl)phenyl)acetate]
631 nM	CCCC[C@@H](CO)Nc1nc(N)nc(C)c1Cc1ccc(CC(=O)OC)cc1 [Example 44, (S)-Methyl 2-(4-((2-amino-4-(1-hydroxyhexan-2-ylamino)-6-methylpyrimidin-5-yl)methyl)phenyl)acetate]
50.1 nM	CCC[C@@H](CCO)Nc1nc(N)nc(C)c1Cc1ccc(CC(=O)OC)cc1F [Example 45, (S)-Methyl 2-(4-((2-amino-4-(1-hydroxyhexan-3-ylamino)-6-methylpyrimidin-5-yl)methyl)-3-fluorophenyl)acetate]
501 nM	CCC[C@@H](CO)Nc1nc(N)nc(C)c1Cc1ccc(CC(=O)OC)cc1F [Example 47, (S)-Methyl 2-(4-((2-amino-4-(1-hydroxypentan-2-ylamino)-6-methylpyrimidin-5-yl)methyl)-3-fluorophenyl)acetate]

Further lines, the compound ahead of its results:

SMILES	EC50
CCCCCNc1nc(N)nc(C)c1CCCN(Cc1ccc(CC(=O)OC)cc1)C(=O)CN(C)CCOC [Example 15, Methyl 2-(4-((N-(3-(2-amino-4-methyl-6-(pentylamino)pyrimidin-5-yl)propyl)-2-((2-methoxyethyl)(methyl)amino)acetamido)methyl)phenyl)acetate]	398 nM
CCCCCNc1nc(N)nc(C)c1CCCCNCc1cccc(CC(=O)OC)c1 [Example 17, Methyl 2-(3-((4-(2-amino-4-methyl-6-(pentylamino)pyrimidin-5-yl)butylamino)methyl)phenyl)acetate]	1000 nM
CCCC[C@@H](CCO)Nc1nc(N)nc(C)c1CCCNCc1ccc(CC(=O)OC)cc1 [Example 18, (S)-Methyl 2-(4-((3-(2-amino-4-(1-hydroxyheptan-3-ylamino)-6-methylpyrimidin-5-yl)propylamino)methyl)phenyl)acetate]	1580 nM
CCCC[C@@H](CCO)Nc1nc(N)nc(C)c1CCCN(Cc1ccc(CC(=O)OC)cc1)C(=O)CN(C)C [Example 19, (S)-Methyl 2-(4-((N-(3-(2-amino-4-(1-hydroxyheptan-3-ylamino)-6-methylpyrimidin-5-yl)propyl)-2-(dimethylamino)acetamido)methyl)phenyl)acetate]	2510 nM
CCCCCNc1nc(N)nc(C)c1Cc1cccc(CC(=O)OC)c1 [Example 20, Methyl 2-(3-((2-amino-4-methyl-6-(pentylamino)pyrimidin-5-yl)methyl)phenyl)acetate]	2000 nM
CCCCCNc1nc(N)nc(C)c1Cc1ccc(CC(=O)OC)cc1OC [Example 21, Methyl 2-(4-((2-amino-4-methyl-6-(pentylamino)pyrimidin-5-yl)methyl)-3-methoxyphenyl)acetate]	15.8 nM
CCCCCNc1nc(N)nc(C)c1CCCNC(=O)Cc1ccc(CC(=O)OC)cc1 [Example 23, Methyl 2-(4-(2-(3-(2-amino-4-methyl-6-(pentylamino)pyrimidin-5-yl)propylamino)-2-oxoethyl)phenyl)acetate]	1000 nM
CCCCCNc1nc(N)nc(C)c1CCCNC(=O)Cc1cccc(CC(=O)OC)c1 [Example 24, Methyl 2-(3-(2-(3-(2-amino-4-methyl-6-(pentylamino)pyrimidin-5-yl)propylamino)-2-oxoethyl)phenyl)acetate]	1000 nM
CCCCCNc1nc(N)nc(C)c1CCCNCc1cccc(OCC(=O)OC)c1 [Example 25, Methyl 2-(3-((3-(2-amino-4-methyl-6-(pentylamino)pyrimidin-5-yl)propylamino)methyl)phenoxy)acetate]	794 nM
CCCCCNc1nc(N)nc(C)c1CCCN(Cc1ccc(CC(=O)OC)cc1)C(=O)CN1CCCC(c2ccc(S(C)(=O)=O)cc2)C1 (stereo not drawn) [Example 26, Methyl 2-(4-((N-(3-(2-amino-4-methyl-6-(pentylamino)pyrimidin-5-yl)propyl)-2-(3-(4-(methylsulfonyl)phenyl)piperidin-1-yl)acetamido)methyl)phenyl)acetate]	794 nM
CCCCCNc1nc(N)nc(C)c1CCCN(Cc1ccc(CC(=O)OC)cc1)C(=O)CN1CCOCC1 [Example 27, Methyl 2-(4-((N-(3-(2-amino-4-methyl-6-(pentylamino)pyrimidin-5-yl)propyl)-2-morpholinoacetamido)methyl)phenyl)acetate]	2000 nM
CCCCCNc1nc(N)nc(C)c1CCCN(Cc1ccc(CC(=O)OC)cc1)C(=O)CN1CCC(c2ccccc2)CC1 [Example 28, Methyl 2-(4-((N-(3-(2-amino-4-methyl-6-(pentylamino)pyrimidin-5-yl)propyl)-2-(4-phenylpiperidin-1-yl)acetamido)methyl)phenyl)acetate]	1260 nM
CCCCCNc1nc(N)nc(C)c1CCCN(Cc1ccc(CC(=O)OC)cc1)C(=O)CN1CCCCC1 [Example 29, Methyl 2-(4-((N-(3-(2-amino-4-methyl-6-(pentylamino)pyrimidin-5-yl)propyl)-2-(piperidin-1-yl)acetamido)methyl)phenyl)acetate]	794 nM
CCCCCNc1nc(N)nc(C)c1Cc1ccc(CC(=O)OCCN2CCOCC2)cc1 [Example 35, 2-Morpholinoethyl 2-(4-((2-amino-4-methyl-6-(pentylamino)pyrimidin-5-yl)methyl)phenyl)acetate]	251 nM
CCCCCNc1nc(N)nc(C)c1Cc1ccc(CC(=O)OCCN(C)C)cc1 [Example 36, 2-(Dimethylamino)ethyl 2-(4-((2-amino-4-methyl-6-(pentylamino)pyrimidin-5-yl)methyl)phenyl)acetate]	251 nM
CCCCCNc1nc(N)nc(C)c1Cc1ccc(CC(=O)OCCCN(C)C)cc1 [Example 37, 3-(Dimethylamino)propyl 2-(4-((2-amino-4-methyl-6-(pentylamino)pyrimidin-5-yl)methyl)phenyl)acetate]	126 nM
CCCCCNc1nc(N)nc(C)c1Cc1ccc(CC(=O)OCCN2CCN(C)CC2)cc1 [Example 38, 2-(4-Methylpiperazin-1-yl)ethyl 2-(4-((2-amino-4-methyl-6-(pentylamino)pyrimidin-5-yl)methyl)phenyl)acetate]	126 nM
CCCCCNc1nc(N)nc(C)c1Cc1cc(CC(=O)OC)ccc1O [Example 39, Methyl 2-(3-((2-amino-4-methyl-6-(pentylamino)pyrimidin-5-yl)methyl)-4-hydroxyphenyl)acetate]	100 nM
CCCCCNc1nc(N)nc(C)c1Cc1ccc(OCC(=O)OC)cc1OC [Example 40, Methyl 2-(4-((2-amino-4-methyl-6-(pentylamino)pyrimidin-5-yl)methyl)-3-methoxyphenoxy)acetate]	126 nM
CCCCNc1nc(N)nc(C)c1Cc1ccc(CC(=O)OC)cc1 [Example 41, Methyl 2-(4-((2-amino-4-(butylamino)-6-methylpyrimidin-5-yl)methyl)phenyl)acetate]	1000 nM
